Results published in patent US20260249027A1, “METERED DOSE INHALERS AND HIGH-DOSE SUSPENSIONS” (Kindeva Drug Delivery L.P., priority 2023, published 2026).

Key:
[1] = Through life dose consistency of mometasone furoate pMDI suspensions (USP <601>, apparatus A); type: physicochemical
Experimental: (§1) In the following examples, dose consistency was determined by in vitro measurement of single actuation dose content at start, middle and end of pMDI unit life in line with U.S. Pharmacopeia (USP)<601>, using a flow rate of 28.3 L/min and apparatus A. Aerodynamic particle size distribution of the pMDI suspension aerosols was measured at start of unit life in line with U.S. Pharmacopeia (USP)<601> using a Next Generation impactor without pre-separator (apparatus 6) and a flow rate of 30 L/min.
(§2) Suspensions of micronized mometasone furoate in HFA-152a or HFO-1234ze(E) were prepared. A first set of suspensions included no ethanol. A second set of suspensions included 2% ethanol by weight. Each suspension included an amount of mometasone furoate to provide a nominal delivered dose (ex-valve) of 0.5 mg/actuation (10.0 mg/mL) or 1.0 mg/actuation (20.0 mg/mL). Two further suspensions including no ethanol were prepared which included an amount of mometasone furoate to provide a nominal delivered dose (ex-valve) of 2.0 mg/actuation (40.0 mg/mL).
(§3) In total, ten suspension pMDI formulations were prepared in triplicate with sufficient fill weight to provide 60 actuations. Each suspension was filled into Kindeva FEP coated canisters, crimped with a Kindeva 50-μL valve. Each pMDI unit was sonicated for at least 10 minutes to disperse the suspended drug and tested with a Kindeva actuator having an exit orifice diameter (EOD) of 0.4 mm.
The through-life (TL) dose consistency of each pMDI unit was determined by measuring the mean ex-actuator delivered dose in micrograms of mometasone furoate (N=3) at the start of life (SoL), middle of life (MOL) and end of life (EoL) of the unit.

[2] = Aerodynamic particle size measurement of mometasone furoate pMDI suspensions (Next Generation impactor); type: physicochemical
Text: In general, aerosols with mass median aerodynamic diameters (MMAD) of at least 1 μm but less than 5 μm in size are suitable for effective deep lung deposition for therapeutic effect. Herein, fine particle fraction (FPF) is defined as the percentage of the ex-actuator delivered API having a MMAD of less than 5 μm when tested in vitro. Herein, “ex-actuator” delivered dose is used to describe the amount of API delivered past the actuator of a pMDI. Therefore, an aerosol with a high FPF is typically suitable for deep lung deposition.
as §1, §2
as §3, with “0.4 mm or 0.25” for “0.4”
The mass median aerodynamic diameter (MMAD) and fine particle fraction (FPF) of each pMDI unit were measured by Next Generation cascade impaction (N=3) for each pMDI suspension.

[3] = nominal ex-valve 0.5 mg/act, HFA-152a
[4] = nominal ex-valve 0.5 mg/act, HFA-152a/2% EtOH (w/w)
[5] = nominal ex-valve 0.5 mg/act, HFO-1234ze(E)
[6] = nominal ex-valve 0.5 mg/act, HFO-1234ze(E)/2% EtOH (w/w)
[7] = nominal ex-valve 1.0 mg/act, HFA-152a
[8] = nominal ex-valve 1.0 mg/act, HFA-152a/2% EtOH (w/w)
[9] = nominal ex-valve 1.0 mg/act, HFO-1234ze(E)
[10] = nominal ex-valve 1.0 mg/act, HFO-1234ze(E)/2% EtOH (w/w)
[11] = nominal ex-valve 2.0 mg/act, HFA-152a
[12] = nominal ex-valve 2.0 mg/act, HFO-1234ze(E)
[13] = nominal ex-valve 0.5 mg/act, HFA-152a/2% EtOH (w/w), actuator exit orifice diameter 0.4 mm
[14] = nominal ex-valve 0.5 mg/act, HFA-152a, actuator exit orifice diameter 0.4 mm
[15] = nominal ex-valve 0.5 mg/act, HFO-1234ze(E)/2% EtOH (w/w), actuator exit orifice diameter 0.25 mm
[16] = nominal ex-valve 0.5 mg/act, HFO-1234ze(E)/2% EtOH (w/w), actuator exit orifice diameter 0.4 mm
[17] = nominal ex-valve 0.5 mg/act, HFO-1234ze(E), actuator exit orifice diameter 0.25 mm
[18] = nominal ex-valve 0.5 mg/act, HFO-1234ze(E), actuator exit orifice diameter 0.4 mm
[19] = nominal ex-valve 1.0 mg/act, HFA-152a/2% EtOH (w/w), actuator exit orifice diameter 0.25 mm
[20] = nominal ex-valve 1.0 mg/act, HFA-152a/2% EtOH (w/w), actuator exit orifice diameter 0.4 mm
[21] = nominal ex-valve 1.0 mg/act, HFA-152a, actuator exit orifice diameter 0.25 mm
[22] = nominal ex-valve 1.0 mg/act, HFA-152a, actuator exit orifice diameter 0.4 mm
[23] = nominal ex-valve 1.0 mg/act, HFO-1234ze(E)/2% EtOH (w/w), actuator exit orifice diameter 0.25 mm
[24] = nominal ex-valve 1.0 mg/act, HFO-1234ze(E)/2% EtOH (w/w), actuator exit orifice diameter 0.4 mm
[25] = nominal ex-valve 1.0 mg/act, HFO-1234ze(E), actuator exit orifice diameter 0.25 mm
[26] = nominal ex-valve 1.0 mg/act, HFO-1234ze(E), actuator exit orifice diameter 0.4 mm
[27] = nominal ex-valve 2.0 mg/act, HFA-152a, actuator exit orifice diameter 0.4 mm
[28] = nominal ex-valve 2.0 mg/act, HFO-1234ze(E), actuator exit orifice diameter 0.4 mm

Question: With `C[C@@H]1C[C@H]2[C@@H]3CCC4=CC(=O)C=C[C@]4(C)[C@@]3(Cl)[C@@H](O)C[C@]2(C)[C@@]1(OC(=O)c1ccco1)C(=O)CCl` [mometasone furoate] as the compound, how does the “effect of addition of ethanol on through unit life ex-actuator delivered dose consistency” value ([1]; 2% ethanol by weight, HFA-152a or HFO-1234ze(E)) read?
Answer: did not always substantially improve

Question: What about the “through unit life ex-actuator delivered dose consistency” value ([1]; HFA-152a or HFO-1234ze(E) with and without 2% ethanol by weight) of the same compound?
Answer: relatively consistent

Question: And the “EoL mean delivered dose” value [1, 3]?
Answer: 433.2 μg/act

Question: What about the “MoL mean delivered dose” value [1, 3] of the same compound?
Answer: 433.8 μg/act

Question: What about the “SoL mean delivered dose” value [1, 3] of the same compound?
Answer: 457.7 μg/act

Question: And the “TL mean delivered dose” value [1, 3]?
Answer: 441.6 μg/act

Question: And the “EoL mean delivered dose” value [1, 4]?
Answer: 450.9 μg/act

Question: What about the “MoL mean delivered dose” value [1, 4] of the same compound?
Answer: 427.3 μg/act

Question: What about the “SoL mean delivered dose” value [1, 4] of the same compound?
Answer: 408.9 μg/act

Question: What about the “TL mean delivered dose” value [1, 4] of the same compound?
Answer: 429.1 μg/act

Question: And the “EoL mean delivered dose” value [1, 5]?
Answer: 430.8 μg/act

Question: What about the “MoL mean delivered dose” value [1, 5] of the same compound?
Answer: 434.7 μg/act

Question: And the “SoL mean delivered dose” value [1, 5]?
Answer: 457.5 μg/act

Question: What about the “TL mean delivered dose” value [1, 5] of the same compound?
Answer: 441.0 μg/act

Question: And the “EoL mean delivered dose” value [1, 6]?
Answer: 465.7 μg/act

Question: And the “MoL mean delivered dose” value [1, 6]?
Answer: 453.1 μg/act

Question: What about the “SoL mean delivered dose” value [1, 6] of the same compound?
Answer: 433.9 μg/act

Question: What about the “TL mean delivered dose” value [1, 6] of the same compound?
Answer: 450.9 μg/act

Question: What about the “EoL mean delivered dose” value [1, 7] of the same compound?
Answer: 705.6 μg/act

Question: And the “MoL mean delivered dose” value [1, 7]?
Answer: 1018.3 μg/act

Question: And the “SoL mean delivered dose” value [1, 7]?
Answer: 1087.9 μg/act

Question: And the “TL mean delivered dose” value [1, 7]?
Answer: 937.3 μg/act

Question: What about the “EoL mean delivered dose” value [1, 8] of the same compound?
Answer: 759.7 μg/act

Question: What about the “MoL mean delivered dose” value [1, 8] of the same compound?
Answer: 936.3 μg/act

Question: What about the “SoL mean delivered dose” value [1, 8] of the same compound?
Answer: 906.5 μg/act

Question: And the “TL mean delivered dose” value [1, 8]?
Answer: 867.5 μg/act

Question: What about the “EoL mean delivered dose” value [1, 9] of the same compound?
Answer: 934.4 μg/act

Question: What about the “MoL mean delivered dose” value [1, 9] of the same compound?
Answer: 931.9 μg/act

Question: And the “SoL mean delivered dose” value [1, 9]?
Answer: 752.4 μg/act

Question: And the “TL mean delivered dose” value [1, 9]?
Answer: 855.3 μg/act

Question: What about the “EoL mean delivered dose” value [1, 10] of the same compound?
Answer: 848.1 μg/act

Question: And the “MoL mean delivered dose” value [1, 10]?
Answer: 1003.4 μg/act

Question: What about the “SoL mean delivered dose” value [1, 10] of the same compound?
Answer: 852.6 μg/act

Question: What about the “TL mean delivered dose” value [1, 10] of the same compound?
Answer: 901.4 μg/act

Question: And the “EoL mean delivered dose” value [1, 11]?
Answer: 1613.8 μg/act

Question: What about the “MoL mean delivered dose” value [1, 11] of the same compound?
Answer: 1771.5 μg/act

Question: And the “SoL mean delivered dose” value [1, 11]?
Answer: 1815.1 μg/act

Question: And the “TL mean delivered dose” value [1, 11]?
Answer: 1733.4 μg/act

Question: And the “EoL mean delivered dose” value [1, 12]?
Answer: 1837.0 μg/act

Question: What about the “MoL mean delivered dose” value [1, 12] of the same compound?
Answer: 1725.9 μg/act

Question: What about the “SoL mean delivered dose” value [1, 12] of the same compound?
Answer: 1755.0 μg/act

Question: What about the “TL mean delivered dose” value [1, 12] of the same compound?
Answer: 1772.6 μg/act

Question: What about the “FPF with actuator EOD 0.25 mm compared with EOD 0.4 mm” value ([2]; 0.5 and 1.0 mg/actuation in HFO-1234ze(E), 1.0 mg/actuation in HFA-152a) of the same compound?
Answer: consistently greater FPFs

Question: And the “MMAD values of aerosols, suitability” value ([2]; HFA-152a or HFO-1234ze(E), with and without ethanol, in-vitro)?
Answer: in an appropriate respirable range

Question: What about the “FPF without ethanol compared with corresponding suspensions with 2% ethanol by weight” value ([2]; HFA-152a or HFO-1234ze(E), all nominal doses) of the same compound?
Answer: generally produced greater FPFs

Question: What about the “Mean FPF” value [2, 13] of the same compound?
Answer: 34.0%

Question: And the “Mean MMAD” value [2, 13]?
Answer: 3.55 μm

Question: And the “Mean FPF” value [2, 14]?
Answer: 37.5%

Question: What about the “Mean MMAD” value [2, 14] of the same compound?
Answer: 3.56 μm

Question: And the “Mean FPF” value [2, 15]?
Answer: 55.3%

Question: What about the “Mean MMAD” value [2, 15] of the same compound?
Answer: 3.70 μm

Question: What about the “Mean FPF” value [2, 16] of the same compound?
Answer: 39.0%

Question: And the “Mean MMAD” value [2, 16]?
Answer: 3.70 μm

Question: What about the “Mean FPF” value [2, 17] of the same compound?
Answer: 66.6%

Question: And the “Mean MMAD” value [2, 17]?
Answer: 3.41 μm

Question: And the “Mean FPF” value [2, 18]?
Answer: 49.8%

Question: And the “Mean MMAD” value [2, 18]?
Answer: 3.36 μm

Question: What about the “Mean FPF” value [2, 19] of the same compound?
Answer: 45.3%

Question: And the “Mean MMAD” value [2, 19]?
Answer: 3.91 μm

Question: And the “Mean FPF” value [2, 20]?
Answer: 31.1%

Question: What about the “Mean MMAD” value [2, 20] of the same compound?
Answer: 3.90 μm

Question: And the “Mean FPF” value [2, 21]?
Answer: 49.1%

Question: And the “Mean MMAD” value [2, 21]?
Answer: 3.75 μm

Question: What about the “Mean FPF” value [2, 22] of the same compound?
Answer: 29.4%

Question: What about the “Mean MMAD” value [2, 22] of the same compound?
Answer: 4.13 μm

Question: And the “Mean FPF” value [2, 23]?
Answer: 52.5%

Question: And the “Mean MMAD” value [2, 23]?
Answer: 3.84 μm

Question: And the “Mean FPF” value [2, 24]?
Answer: 31.8%

Question: And the “Mean MMAD” value [2, 24]?
Answer: 4.01 μm

Question: And the “Mean FPF” value [2, 25]?
Answer: 58.8%

Question: And the “Mean MMAD” value [2, 25]?
Answer: 3.61 μm

Question: What about the “Mean FPF” value [2, 26] of the same compound?
Answer: 39.5%

Question: What about the “Mean MMAD” value [2, 26] of the same compound?
Answer: 3.69 μm

Question: And the “Mean FPF” value [2, 27]?
Answer: 19.5%

Question: What about the “Mean MMAD” value [2, 27] of the same compound?
Answer: 5.09 μm

Question: And the “Mean FPF” value [2, 28]?
Answer: 22.5%

Question: And the “Mean MMAD” value [2, 28]?
Answer: 4.87 μm

Question: And the “FPF and MMAD in HFO-1234ze(E) compared with corresponding suspensions in HFA-152a” value ([2]; with or without ethanol)?
Answer: consistently produced greater FPFs and generally smaller MMADs
